Source: US8182844B2, “Use of Clerodendrum sp. for treating tic disorders or psychiatric disorders with sensorimotor gating deficits” (priority 2010, dated 2012)

test system: methamphetamine-induced PPI disruption in mice; assay: Methamphetamine-induced disruption of prepulse inhibition of the startle response (PPI), dopamine hypothesis model; type: in vivo, mouse; conditions: diazepam, dose not given; methamphetamine 2 mg/kg; FIG. 2B
Source text: PPI is a neurophysiological phenomenon that the startle response to a stimulus, which could be a sound, an airpuff or a light, is inhibited if a stimulus with the same source but at weaker intensity prior to the stimulus was applied within a short interval. This is a fast neuroadaptative system to protect the living organisms from startle stimulation. It is believed to be a processing protection in a living organism that PPI serves as a sensorimotor gating, a pre-conscious regulator of attention, to reduce the startle response which is harmful to the information professing. […] PPI can be assessed by the motor response in either humans (measuring the eyeblink response by electromyograph) or animals (measuring the startle response).
Mice were i.p. injected by methamphetamine (2 mg/kg) to induce PPI disruption, as a schizophrenia model based on dopamine hypothesis. PPI was measured using the SR-LAB Startle Response System (San Diego Instrument, San Diego, Calif.). […] In the startle-alone trials, the basic auditory startle was measured, and in the prepulse-plus-startle trials, the amount of inhibition of normal startle induced by the prepulse was measured and expressed as a percentage of the basic startle. In the prepulse-alone trials, the normal response to a weak noise was measured as a control.

Molecule | rescue of methamphetamine-induced PPI disruption
CN1C(=O)CN=C(c2ccccc2)c2cc(Cl)ccc21 [diazepam] | did not rescue

same assay, conditions: methamphetamine 2 mg/kg i.p. alone, without extract; 71 db prepulse; control mice 55.6±3.5%

Molecule | PPI (inhibition of startle response to 115 db by prepulse) [%]
CN[C@@H](C)Cc1ccccc1 [methamphetamine] | 42.4±4.1

test system: chronic motor tic disorder; assay: Case report: effect on tics in a child with chronic motor tic disorder; type: in vivo, human; conditions: single patient, before taking the leaf extract
Procedure: Withholding all medications for 1 day, they received examination of catecholamine metabolites in the cerebrospinal fluid.
Subsequently, this patient, started to take the extract of the grounded leaves of Clerodendrum inerme, which was prepared by mixing the leaves with water by a blender and collecting the juice after filtration as resulted. […] Honey was added because of the bitter taste. […] The follow-up IQ test had been arranged, but the patient was absent on the examination day.
This patient followed up regularly in NTUH pediatric outpatient clinic for their seizure problem.

Molecule | effect of earlier anti-tic medications on the involuntary movements of the patient
CN1C(=O)CN=C(c2ccccc2)c2cc(Cl)ccc21 [diazepam] | in vain
biperidal | without success
Cc1nc2n(c(=O)c1CCN1CCC(c3noc4cc(F)ccc34)CC1)CCCC2 [Risperidone] | in vain
O=C(CCCN1CCC(O)(c2ccc(Cl)cc2)CC1)c1ccc(F)cc1 [haloperidol] | in vain
CCCN1C[C@H](CSC)C[C@@H]2c3cccc4[nH]cc(c34)C[C@H]21 [pergolide] | without success
Clc1cccc(Cl)c1N=C1NCCN1 [clonidine] | without success
CCN1CCCC1CNC(=O)c1cc(S(N)(=O)=O)ccc1OC (stereo not drawn) [sulpiride] | without success
